Some test systems named below: A498; BT-549; CAKI-1; EKVX; HCT-15; Hs-578T; K562; M14; MDA-MB-231; NCI-H23; OVCAR-3; PC-3; RPMI-8226; RXF 393; SK-MEL-2; T47D; UO-31; HOP-92; SF-539; NCI-H460.
Common to all, as to assay: NCI tumour cell line growth inhibition, 48 h

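Step 1: Grow cells in 96-well plates. Step 2: Expose to compound for 48 hours at 5 concentrations. Step 3: Interpolate endpoints linearly; if unreached, use highest concentration. Abbreviation: GI50, concentration required for 50% inhibition of growth.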 The source made the active and inactive calls. Rule as the data show it: active = GI50 up to about 1.1 µM and inactive = higher.

Consider `CC(C)CC(=O)CC(O)C(Cl)(Cl)Cl` (stereo not given), for which the GI50 is > 100 µM (inactive) in the experiment with A498; > 100 µM (inactive) with BT-549; > 100 µM (inactive) with CAKI-1; > 100 µM (inactive) in the experiment with EKVX; greater than 100 µM in the experiment with HCT-15; 56.2 µM (inactive) in the experiment with Hs-578T. Besides, the GI50 in the experiment with K562, with M14, in the experiment on MDA-MB-231, in the experiment on NCI-H23, in the experiment with OVCAR-3 and with PC-3 was > 100 µM (inactive) in each case. The GI50 in the experiment with RPMI-8226, in the experiment on RXF 393, with SK-MEL-2, in the experiment on T47D and in the experiment on UO-31 was > 100 µM (inactive) each time.
For the compound `c1ccc2[nH]c(C3CCCCO3)nc2c1` (stereo not given), the GI50 in the experiment on BT-549 is > 100 µM (inactive); in the experiment with CAKI-1 it was > 100 µM (inactive); in the experiment on EKVX, > 100 µM (inactive); with HCT-15, greater than 100 µM; with HOP-92, > 100 µM (inactive); in the experiment on Hs-578T it was > 100 µM (inactive). Moreover, the GI50 in the experiment with K562, with M14, with MDA-MB-231, in the experiment on NCI-H23, in the experiment on OVCAR-3 and in the experiment with PC-3 was > 100 µM (inactive) throughout. The GI50 with RPMI-8226, in the experiment with RXF 393, in the experiment with SF-539, in the experiment with SK-MEL-2, in the experiment with T47D and with UO-31 was > 100 µM (inactive) throughout.
With `O=C1OC(=O)c2cc(S(=O)(=O)c3ccc4c(c3)C(=O)OC4=O)ccc21`, the GI50 in the experiment with BT-549 is > 100 µM (inactive); with CAKI-1 it was > 100 µM (inactive); with EKVX it was > 100 µM (inactive); in the experiment on HCT-15, greater than 100 µM; with Hs-578T, > 100 µM (inactive); in the experiment on K562 it was > 100 µM (inactive). The GI50 in the experiment on M14, with MDA-MB-231, in the experiment with NCI-H23, in the experiment with NCI-H460, in the experiment with OVCAR-3 and in the experiment on PC-3 was > 100 µM (inactive) throughout. Moreover, the GI50 in the experiment with RPMI-8226, in the experiment with RXF 393, in the experiment on SF-539, in the experiment with SK-MEL-2, in the experiment with T47D and in the experiment with UO-31 was > 100 µM (inactive) throughout.
Take `Cc1nc(N)c(N2CCN([N+](=O)[O-])CC2)c(O)n1`: the GI50 in the experiment on A498 was > 100 µM (inactive); in the experiment with BT-549, > 100 µM (inactive); in the experiment on EKVX it was > 100 µM (inactive); with HCT-15, greater than 100 µM; with Hs-578T it was > 100 µM (inactive); with K562, > 100 µM (inactive). Further, the GI50 with M14, with MDA-MB-231, with NCI-H23, in the experiment with NCI-H460, in the experiment with OVCAR-3 and in the experiment with PC-3 was > 100 µM (inactive) each time. For the same compound, the GI50 in the experiment on RPMI-8226, in the experiment with SF-539, in the experiment on SK-MEL-2, in the experiment with T47D and with UO-31 was > 100 µM (inactive) throughout.
For the compound `COc1ccc2c(N=[N+]=[N-])c(-c3ccccc3)c(=O)oc2c1`, the GI50 in the experiment with A498 is 45.9 µM (inactive); with BT-549, 31.4 µM (inactive); in the experiment with CAKI-1, 30.1 µM (inactive); in the experiment with EKVX, 39.8 µM (inactive); in the experiment with HCT-15, 56.6 µM; with Hs-578T, > 100 µM (inactive). The GI50 with K562 is 40 µM (inactive); in the experiment with M14 it was 57 µM (inactive); with MDA-MB-231 it was 87.1 µM (inactive); with NCI-H23, 24.5 µM (inactive); in the experiment with NCI-H460, 49.3 µM (inactive); in the experiment with PC-3, 52.7 µM (inactive). Besides, the GI50 was 20.8 µM (inactive) with RPMI-8226, > 100 µM (inactive) in the experiment on SF-539 and 22.8 µM (inactive) in the experiment with T47D.
For the compound `CN1CCC2(CC1)C(=O)N(NC(N)=O)C(=O)C2c1ccccc1` (stereo not given), the GI50 is > 100 µM (inactive) in the experiment with BT-549; > 100 µM (inactive) with CAKI-1; > 100 µM (inactive) in the experiment with EKVX; greater than 100 µM in the experiment on HCT-15; > 100 µM (inactive) in the experiment with Hs-578T; > 100 µM (inactive) in the experiment on K562. The GI50 in the experiment with M14, in the experiment on MDA-MB-231, with NCI-H23, in the experiment with NCI-H460, with OVCAR-3 and in the experiment with PC-3 was > 100 µM (inactive) each time. Also, the GI50 in the experiment with RPMI-8226, with RXF 393, in the experiment with SF-539, in the experiment on SK-MEL-2, with T47D and with UO-31 was > 100 µM (inactive) in each case.
`CCCC(=O)NC(Nc1ccc(S(=O)(=O)Nc2cc(C)on2)cc1)(C(=O)OCC)C(F)(F)F` (stereo not given): the GI50 is > 100 µM (inactive) in the experiment with BT-549; > 100 µM (inactive) with CAKI-1; > 100 µM (inactive) in the experiment on EKVX; greater than 100 µM in the experiment on HCT-15; > 100 µM (inactive) with HOP-92; > 100 µM (inactive) in the experiment with Hs-578T. The GI50 in the experiment on K562, in the experiment with M14, in the experiment on MDA-MB-231, in the experiment on NCI-H23, with OVCAR-3 and in the experiment on PC-3 was > 100 µM (inactive) throughout. The GI50 with RPMI-8226, with RXF 393, in the experiment on SF-539, with SK-MEL-2, in the experiment on T47D and in the experiment with UO-31 was > 100 µM (inactive) in each case.
Regarding `O=C1c2cc([N+](=O)[O-])cnc2S(=O)(=O)N1c1ccc(Br)cc1`, the GI50 in the experiment on BT-549 was > 100 µM (inactive); in the experiment with CAKI-1, > 100 µM (inactive); in the experiment with EKVX it was > 100 µM (inactive); with HCT-15, greater than 100 µM; with HOP-92 it was > 100 µM (inactive); with Hs-578T, > 100 µM (inactive). Moreover, the GI50 in the experiment with M14, in the experiment on MDA-MB-231, in the experiment with NCI-H23, with NCI-H460, with OVCAR-3 and with PC-3 was > 100 µM (inactive) each time. In addition, the GI50 with RPMI-8226, in the experiment with SF-539, with SK-MEL-2, in the experiment with T47D and in the experiment on UO-31 was > 100 µM (inactive) in each case.
For the compound `O=[N+]([O-])c1ccc(N2N=C(c3ccc4ccccc4c3O)CC2c2ccc(Cl)cc2Cl)c([N+](=O)[O-])c1` (stereo not given), the GI50 is 49.1 µM (inactive) in the experiment on BT-549; 54.6 µM (inactive) with CAKI-1; 37.3 µM (inactive) with EKVX; 27.2 µM in the experiment on HCT-15; 27.9 µM (inactive) in the experiment with Hs-578T; 15.4 µM (inactive) in the experiment on K562. Moreover, the GI50 is > 10 µM (inactive) with M14; 30.9 µM (inactive) with MDA-MB-231; 24.7 µM (inactive) in the experiment with NCI-H23; 51.1 µM (inactive) with NCI-H460; 33.7 µM (inactive) in the experiment with OVCAR-3; 35.1 µM (inactive) in the experiment on PC-3. Moreover, the GI50 in the experiment on RPMI-8226 is 18.8 µM (inactive); in the experiment on RXF 393, 25.4 µM (inactive); in the experiment with SF-539, 25.6 µM (inactive); with SK-MEL-2, 30.3 µM (inactive); in the experiment with T47D, 27.7 µM (inactive); in the experiment on UO-31 it was 18.7 µM (inactive).
Consider `C=C1CC(COc2ccc3ccc(=O)oc3c2)(c2ccccc2)OC1=O` (stereo not given), for which the GI50 in the experiment on BT-549 is 1.54 µM (inactive); with CAKI-1, 0.885 µM (active); with EKVX, 7.5 µM (inactive); in the experiment on HCT-15, 1.87 µM; in the experiment on HOP-92, 0.685 µM (active); in the experiment with Hs-578T, 4.03 µM (inactive). The GI50 with K562 is 0.266 µM (active); in the experiment with M14 it was 1.18 µM (inactive); in the experiment on MDA-MB-231, 2.52 µM (inactive); with NCI-H23, 0.912 µM (active); in the experiment on NCI-H460, 10.5 µM (inactive); with OVCAR-3 it was 1.61 µM (inactive). In addition, the GI50 in the experiment with PC-3 was 2.69 µM (inactive); with RPMI-8226 it was 0.143 µM (active); with SF-539, 3.46 µM (inactive); in the experiment on SK-MEL-2 it was 1.53 µM (inactive); in the experiment on T47D it was 1.87 µM (inactive); in the experiment on UO-31, 5.19 µM (inactive).
On to `S=C1CC(c2ccccc2)Sc2ccc(Cl)cc2N1` (stereo not given), for which the GI50 with BT-549 is 19.9 µM (inactive); in the experiment with CAKI-1, 63.7 µM (inactive); in the experiment with EKVX it was 50.7 µM (inactive); in the experiment on HCT-15, 32.7 µM; in the experiment on Hs-578T, 16.4 µM (inactive); in the experiment with K562, 16.2 µM (inactive). The GI50 in the experiment with M14 is 37.4 µM (inactive); in the experiment with MDA-MB-231, 47.9 µM (inactive); in the experiment on NCI-H23, 30.8 µM (inactive); with NCI-H460, 21.2 µM (inactive); in the experiment with OVCAR-3, 46.5 µM (inactive); in the experiment on PC-3, 4.56 µM (inactive). Besides, the GI50 in the experiment with RPMI-8226 was 90.4 µM (inactive); with RXF 393, 2.99 µM (inactive); with T47D, 59.3 µM (inactive); in the experiment with UO-31 it was 71.3 µM (inactive).

The values are drawn from ChEMBL document CHEMBL1201862, “PubChem BioAssay data set” (2004).
